pIC50: −log10 of the molar value.
Legend:
MDR1 = target: T1, MDR1 (Homo sapiens, UniProt P08183); assay: MDR1-MDCK effective efflux ratio; format: in vitro ADME; conditions: MDR1-MDCK relative to wild-type MDCK, 1 μM, 60 minutes, pH 7.4
T1 construct: expressed in transfected cells; host or cells: MDCK (canine kidney) cells
Protocol: (§1) Wild-type MDCK, MDR1-MDCK and BCRP-MDCK cells were seeded into 24 well Transwell plates and cultured for 3 days to form monolayers. Test compound were prepared at 1 μM in Hanks' Balanced Salt Solution containing 25 mM HEPES and loaded into the donor compartments of Transwell plates bearing the cell monolayers (pH 7.4 for both donor and receiver compartments). Lucifer Yellow was added to the apical buffer in all wells to assess integrity of the cell monolayer. Duplicate wells were prepared and incubated at 37° C. in a CO2 incubator. Samples were removed at time zero and 60 minutes and test compound analysed by LC-MS/MS. Concentrations of Lucifer Yellow in the samples was measured using a fluorescence plate reader. The apparent permeability (Papp) values of test compound was determined for both the apical to basal (A>B) and basal to apical (B>A) permeation and the efflux ratio (B>A: A>B) determined in each cell line. The effective efflux ratio was determined from the ratio of either MDR1-MDCK cells or BCRP-MDCK cells relative to the ratio observed in wild-type cells. A higher value represent a better substrate for the efflux mechanism, which is less preferable.

BCRP = target: T2, BCRP (Homo sapiens, UniProt Q9UNQ0); assay: BCRP-MDCK effective efflux ratio; format: in vitro ADME; conditions: BCRP-MDCK relative to wild-type MDCK, 1 μM, 60 minutes, pH 7.4
T2 construct: expressed in transfected cells; host or cells: MDCK (canine kidney) cells
T2 sequence (Q9UNQ0 1-655): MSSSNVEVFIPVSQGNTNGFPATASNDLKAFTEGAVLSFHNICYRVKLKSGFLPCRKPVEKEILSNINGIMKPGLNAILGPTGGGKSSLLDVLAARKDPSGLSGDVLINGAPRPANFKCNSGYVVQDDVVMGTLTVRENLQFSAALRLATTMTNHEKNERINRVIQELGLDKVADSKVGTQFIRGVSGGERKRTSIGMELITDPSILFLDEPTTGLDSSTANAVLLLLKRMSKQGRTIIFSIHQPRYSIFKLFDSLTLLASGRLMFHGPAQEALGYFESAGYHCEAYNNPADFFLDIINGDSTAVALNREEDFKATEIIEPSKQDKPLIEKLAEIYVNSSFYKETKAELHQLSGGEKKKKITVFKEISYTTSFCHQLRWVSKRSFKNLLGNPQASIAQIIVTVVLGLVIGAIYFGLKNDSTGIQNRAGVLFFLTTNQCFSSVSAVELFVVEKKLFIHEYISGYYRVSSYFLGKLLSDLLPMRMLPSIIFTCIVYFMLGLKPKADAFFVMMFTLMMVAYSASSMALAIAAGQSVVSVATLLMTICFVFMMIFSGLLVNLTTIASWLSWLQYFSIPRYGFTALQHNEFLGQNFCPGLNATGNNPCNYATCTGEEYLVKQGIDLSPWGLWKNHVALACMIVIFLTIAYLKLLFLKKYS
Protocol: as §1

[1] = target: T3, Ba/F3 cells expressing BCR-ABL (Homo sapiens, UniProt P00519); assay: Ba/F3 CellTiter-Glo Assay; format: cell-based; conditions: 48 h incubation, CellTiter-Glo luminescence
T3 construct: BCR (fusion partner, N-terminal portion of BCR); host or cells: Ba/F3 (murine pro-B cells); the other entry of the earlier key: BCR (P11274, Breakpoint cluster region protein)
T3 sequence (P00519 229-512 limits assumed): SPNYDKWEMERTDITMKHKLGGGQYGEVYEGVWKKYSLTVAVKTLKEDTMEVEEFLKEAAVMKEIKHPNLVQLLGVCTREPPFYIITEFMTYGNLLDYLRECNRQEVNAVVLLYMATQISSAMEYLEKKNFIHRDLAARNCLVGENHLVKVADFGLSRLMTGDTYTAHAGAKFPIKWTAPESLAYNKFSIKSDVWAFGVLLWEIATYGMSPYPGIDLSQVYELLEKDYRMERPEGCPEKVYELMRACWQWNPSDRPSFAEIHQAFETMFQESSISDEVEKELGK
Protocol: The CellTiter-Glo luminescent cell viability assay is a homogeneous method of determining the number of viable cells in culture based on quantification of the ATP present. Briefly, IL-3 dependent Ba/F3 cells are modified to express BCR-ABL. Activity of the transformed kinase overrides IL-3 dependency for cellular proliferation and survival. […] In this assay Ba/F3 cells expressing BCR-ABL (Advanced Cellular Dynamics) or parental Ba/F3 (control) cells were prepared at 5×10^4/mL in RPMI 1640 containing 10% FBS, 1×Glutamax and 750 ng/mL puromycin. Test compounds were dispensed into 384 well plates using the Tecan D300e at a top final assay concentration of 10 μM with dosing normalised to 0.1% DMSO in […]. 50 μL cells were added to each well of the prepared 384 well plates and the plates spun at 1000 rpm for 1 min prior to incubation at 37° C., 5% CO2 for 48 h. After 48 h 15 μL CellTiter-Glo reagent was added to each well in the plate. Following a 60 min incubation at rt luminescence was read on the Pherastar FS reader.

[2] = Human microsomal stability; format: in vitro ADME; conditions: human microsomes, first value of cell; NADPH, 37° C., up to 40 min
Protocol: (§2) This assay measures the metabolic stability of a given compound and predicts intrinsic liver clearance for various species. A quench plate is initially prepared which contains 400 μL MeCN and 25 ng/mL of internal standard. An aliquot of microsomes is defrosted and subsequently diluted with buffer. A solution of NADPH is made up fresh just before initialising the assay. 445 μL of microsome solution is added to the desired compound (5 μL in 10 μM DMSO) and the resulting solution mixed. The reaction is initiated by the addition of 50 μL of NADPH, a T0 sample is removed before the addition and quenched. The sample plate is kept at a constant 37° C. during the incubation. At pre-determined timepoints (2.5, 5, 10, 20 and 40 min) the incubation is mixed and 22.5 μL samples are transferred to quench plates. After completion of the time course, the quench plates are sealed and shaken for a minimum of 5 min, before centrifugation at 4000 rpm for 5 min. The supernatant is then subsequently transferred to a fresh plate and diluted 1:3 with MeOH/H2O. The plates are then heat sealed and analysed by a Water Acquity UPLC and a Waters TQ-S mass spectrometer. Waters MassLynx software is used for analysis using an MRM transition that has been previously generated from prior optimisation. After acquiring the data on the system the chromatograms are processed and checked using TargetLynx XS software and the raw data output is copied into a microsomal stability workbook. The workbook automatically populates and derives the CLint, t1/2 and scales the CLint values to generate Eh and predicted CL values. The analyst has the final workbook quality checked before the experiment is signed off.

Rat microsomal stability = format: in vitro ADME; conditions: rat microsomes, second value of cell; NADPH, 37° C., up to 40 min
Protocol: as §2

T1 sequence (P08183 whole entry, species assumed): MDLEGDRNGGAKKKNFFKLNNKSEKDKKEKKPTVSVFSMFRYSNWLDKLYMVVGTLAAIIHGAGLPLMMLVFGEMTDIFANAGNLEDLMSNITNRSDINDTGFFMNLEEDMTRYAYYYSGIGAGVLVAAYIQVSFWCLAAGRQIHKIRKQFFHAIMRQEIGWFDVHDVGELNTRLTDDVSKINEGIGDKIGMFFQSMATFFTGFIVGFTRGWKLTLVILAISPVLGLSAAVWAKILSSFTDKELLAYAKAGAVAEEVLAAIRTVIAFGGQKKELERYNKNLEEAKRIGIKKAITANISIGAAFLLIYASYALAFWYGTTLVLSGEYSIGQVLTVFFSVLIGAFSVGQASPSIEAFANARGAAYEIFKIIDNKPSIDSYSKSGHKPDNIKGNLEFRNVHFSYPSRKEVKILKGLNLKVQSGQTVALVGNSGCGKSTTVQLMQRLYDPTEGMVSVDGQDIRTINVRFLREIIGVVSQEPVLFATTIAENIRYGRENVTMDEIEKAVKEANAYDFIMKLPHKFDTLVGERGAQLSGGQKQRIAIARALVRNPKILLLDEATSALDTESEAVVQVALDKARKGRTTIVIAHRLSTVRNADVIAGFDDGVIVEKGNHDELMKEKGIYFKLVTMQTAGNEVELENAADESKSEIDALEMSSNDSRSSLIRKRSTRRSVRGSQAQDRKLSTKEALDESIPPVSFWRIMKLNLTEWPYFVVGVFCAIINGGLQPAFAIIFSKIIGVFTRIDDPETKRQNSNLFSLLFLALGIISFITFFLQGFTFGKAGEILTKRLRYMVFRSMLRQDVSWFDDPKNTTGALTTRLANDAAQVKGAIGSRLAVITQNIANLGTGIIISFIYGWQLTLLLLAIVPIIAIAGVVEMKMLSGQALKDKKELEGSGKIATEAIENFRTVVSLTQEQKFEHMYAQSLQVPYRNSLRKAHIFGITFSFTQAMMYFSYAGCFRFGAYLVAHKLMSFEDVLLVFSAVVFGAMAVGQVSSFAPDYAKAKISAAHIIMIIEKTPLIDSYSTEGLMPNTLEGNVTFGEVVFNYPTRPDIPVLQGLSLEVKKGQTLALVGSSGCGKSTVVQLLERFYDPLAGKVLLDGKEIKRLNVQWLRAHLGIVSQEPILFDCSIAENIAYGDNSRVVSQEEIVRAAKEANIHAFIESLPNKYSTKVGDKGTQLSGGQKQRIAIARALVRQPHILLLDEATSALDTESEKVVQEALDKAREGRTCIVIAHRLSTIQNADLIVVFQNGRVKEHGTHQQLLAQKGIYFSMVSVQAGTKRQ

Row | SMILES | MDCK MDR1 EER (MDR1) | MDCK BCRP EER (BCRP) | pIC50 [1] | Microsomal stability (human/rat) Eh [2] | Microsomal stability (human/rat) Eh (Rat microsomal stability)
1 | Cc1ccc(C(=O)Nc2cc(C(F)(F)F)c(CN3CCN(C)CC3)cn2)cc1-n1cc(-c2cccnc2)cn1 [compound 6, 4-Methyl-N-[5-[(4-methylpiperazin-1-yl)methyl]-4-(trifluoromethyl)-2-pyridyl]-3-[4-(3-pyridyl)pyrazol-1-yl]benzamide, reference compound] | 15.8 | 5.0 |  |  | 
2 | Cc1ccc(C(=O)Nc2cc(C(F)(F)F)ccn2)cc1-n1cc(-c2cnn(C)c2C)cn1 [Example 4, 3-[4-(1,5-Dimethylpyrazol-4-yl)pyrazol-1-yl]-4-methyl-N-[4-(trifluoromethyl)-2-pyridyl]benzamide] | 1.2 | 1.3 | 7.14 | < 0.44 | 0.60
3 | Cc1cncc(-c2cnn(-c3cc(C(=O)Nc4cc(C(F)(F)F)ccn4)ccc3C)c2)c1 [Example 7] | 1.2 | 0.8 | 7.49 |  | 
4 | Cc1ccc(C(=O)Nc2cc(C(F)(F)F)ccn2)cc1-n1cc(-c2cccnc2)cn1 [Example 1, 4-Methyl-3-[4-(3-pyridyl)pyrazol-1-yl]-N-[4-(trifluoromethyl)-2-pyridyl]benzamide] | 1 | 1.5 | 7.66 | 0.70 | 0.69
5 | Cc1ccc(C(=O)Nc2cc(C(F)(F)F)cnn2)cc1-n1cc(-c2cccnc2)nn1 [compound 3, 4-Methyl-3-[4-(3-pyridyl)triazol-1-yl]-N-[5-(trifluoromethyl)pyridazin-3-yl]benzamide, reference compound] | 9.8 | 8.5 |  |  | 
6 | Cc1ccc(C(=O)Nc2ccc(CN3CCN(C)CC3)c(C(F)(F)F)c2)cc1-n1cc(-c2cnc(N)nc2)nn1 [compound 5, 3-[4-(2-aminopyrimidin-5-yl)triazol-1-yl]-4-methyl-N-[4-[(4-methylpiperazin-1-yl)methyl]-3-(trifluoromethyl)phenyl]benzamide, reference compound] | 4.3 | 2.1 |  |  | 
7 | Cc1ccc(C(=O)Nc2cc(C(F)(F)F)cc(C#N)n2)cc1-n1cc(-c2cccnc2)cn1 [Example 10, N-[6-cyano-4-(trifluoromethyl)pyridin-2-yl]-4-methyl-3-[4-(pyridin-3-yl)-1H-pyrazol-1-yl]benzamide] |  |  | 7.74 | 0.70 | 0.65
8 | Cc1ccc(C(=O)Nc2cc(C(F)(F)F)ccn2)cc1-n1ccc(-c2cccnc2)n1 [Comparative example 4, 4-Methyl-3-[3-(3-pyridyl)pyrazol-1-yl]-N-[4-(trifluoromethyl)-2-pyridyl]benzamide, reference compound] |  |  | 5.57 |  | 
9 | CNc1ncc(-c2cnn(-c3cc(C(=O)Nc4cc(C(F)(F)F)ccn4)ccc3C)c2)cn1 [Example 5, 4-Methyl-3-[4-[2-(methylamino)pyrimidin-5-yl]pyrazol-1-yl]-N-[4-(trifluoromethyl)-2-pyridyl]benzamide] | 1.1 | 1.0 | 7.27 |  | 
10 | COc1cncc(-c2cnn(-c3cc(C(=O)Nc4cc(C(F)(F)F)ccn4)ccc3C)c2)c1 [Example 9, 3-[4-(5-methoxypyridin-3-yl)-1H-pyrazol-1-yl]-4-methyl-N-[4-(trifluoromethyl)pyridin-2-yl]benzamide] | 1.2 | 1.1 | 7.55 |  | 
11 | Cc1ccc(C(=O)Nc2cc(C(F)(F)F)ccn2)cc1-n1cc(-c2cncc(F)c2)cn1 [Example 8, 3-[4-(5-Fluoropyridin-3-yl)-1H-pyrazol-1-yl]-4-methyl-N-[4-(trifluoromethyl)pyridin-2-yl]benzamide] | 1.6 | 1.1 | 7.54 |  | 
12 | Cc1ccc(C(=O)Nc2cc(C(F)(F)F)ccn2)cc1-n1cc(-c2cncc(N3CCN(C)CC3)c2)cn1 [Example 6, 4-Methyl-3-[4-[5-(4-methylpiperazin-1-yl)-3-pyridyl]pyrazol-1-yl]-N-[4-(trifluoromethyl)-2-pyridyl]benzamide] |  |  | 7.08 |  | 
13 | Cc1ccc(C(=O)Nc2cc(CN3CCCC3)cc(C(F)(F)F)c2)cc1-n1cc(-c2cccnc2)cn1 [Comparative example 1, 4-Methyl-3-[4-(3-pyridyl)pyrazol-1-yl]-N-[3-(pyrrolidin-1-ylmethyl)-5-(trifluoromethyl)phenyl]benzamide, reference compound] |  |  |  | 0.81 | 0.93
14 | Cc1ccc(C(=O)Nc2cc(CN3CCOCC3)cc(C(F)(F)F)c2)cc1-n1cc(-c2cccnc2)cn1 [Comparative example 2, 4-Methyl-N-[3-(morpholinomethyl)-5-(trifluoromethyl)phenyl]-3-[4-(3-pyridyl)pyrazol-1-yl]benzamide, reference compound] | 6.5 | 1.8 |  | 0.96 | 0.99

Source: patent US20240076284A1, “NEW COMPOUNDS AND METHODS” (BENEVOLENTAI BIO LIMITED, priority 2020, published 2024)
